Test results from PubChem BioAssay (NCI).
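Growth conditions: 96-well plates. Treatment: test compound, 48 hours, 5 concentrations. Analysis: linear interpolation between bracketing concentrations; unreached endpoints set to highest concentration. GI50 marks 50% less growth. The concentration for full growth arrest is given as TGI.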

Tests used:
Assay in all cases: DTP human tumour cell line panel, 48 h
[1] = system: 786-0 renal
[2] = system: A498 renal
[3] = system: A549 NSCLC
[4] = system: ACHN renal
[5] = system: BT-549 breast
[6] = system: CAKI-1 renal
[7] = system: CCRF-CEM leukemia
[8] = system: COLO 205 colon
[9] = system: DU-145 prostate
[10] = system: EKVX NSCLC
[11] = system: HCC-2998 colon
[12] = system: HCT-116 colon
[13] = system: HCT-15 colon
[14] = system: HL-60(TB) leukemia
[15] = system: HOP-62 NSCLC
[16] = system: HOP-92 NSCLC
[17] = system: HS 578T breast
[18] = system: HT29 colon
[19] = system: IGROV1 ovarian
[20] = system: K-562 leukemia
[21] = system: KM12 colon
[22] = system: LOX IMVI melanoma
[23] = system: M14 melanoma
[24] = system: MALME-3M melanoma
[25] = system: MCF7 breast
[26] = system: MDA-MB-231 breast
[27] = system: MDA-MB-435
[28] = system: MDA-MB-468 breast
[29] = system: MOLT-4 leukemia
[30] = system: NCI-H226 lung
[31] = system: NCI-H23 lung
[32] = system: NCI-H460 lung
[33] = system: NCI-H522 lung
[34] = system: OVCAR-3 ovarian
[35] = system: OVCAR-4 ovarian
[36] = system: OVCAR-5 ovarian
[37] = system: OVCAR-8 ovarian
[38] = system: PC-3 prostate
[39] = system: RPMI-8226 leukemia
[40] = system: RXF 393 renal
[41] = system: SF-268 CNS
[42] = system: SF-295 CNS
[43] = system: SF-539 CNS
[44] = system: SK-MEL-2 melanoma
[45] = system: SK-MEL-28 melanoma
[46] = system: SK-MEL-5 melanoma
[47] = system: SK-OV-3 ovarian
[48] = system: SN12C renal
[49] = system: SNB-19 CNS
[50] = system: SNB-75 CNS
[51] = system: SR leukemia
[52] = system: SW-620 colon
[53] = system: T-47D breast
[54] = system: TK-10 renal
[55] = system: U251 CNS
[56] = system: UACC-257 melanoma
[57] = system: UACC-62 melanoma
[58] = system: UO-31 renal

CC(C)N=C([Se])NC(=O)c1cccs1
GI50 [1]: 17.7 µM
TGI [1]: 31.9 µM
GI50 [2]: 6.55 µM
TGI [2]: 59.2 µM
GI50 [3]: 4.3 µM
TGI [3]: 33.1 µM
GI50 [4]: 18 µM
TGI [4]: 37.4 µM
GI50 [5]: 15.4 µM
TGI [5]: 31 µM
GI50 [6]: 17 µM
TGI [6]: 32.6 µM
GI50 [7]: 17.4 µM
TGI [7]: 50.6 µM
GI50 [8]: 16.8 µM
TGI [8]: 31.7 µM
GI50 [9]: 19.3 µM
TGI [9]: 40 µM
GI50 [10]: 7.45 µM
TGI [10]: 20.8 µM
GI50 [11]: 5.8 µM
TGI [11]: 18.4 µM
GI50 [12]: 4.78 µM
TGI [12]: 18.4 µM
GI50 [13]: 18.4 µM
TGI [13]: 37.5 µM
GI50 [14]: 20.3 µM
TGI [14]: 55.6 µM
GI50 [15]: 4.11 µM
TGI [15]: 19.1 µM
GI50 [16]: 22.1 µM
TGI [16]: 51.6 µM
GI50 [17]: 7.16 µM
TGI [17]: 32 µM
GI50 [18]: 18.4 µM
TGI [18]: 46.6 µM
GI50 [19]: 8.04 µM
TGI [19]: 21.1 µM
GI50 [20]: 28.4 µM
TGI [20]: 87.1 µM
GI50 [21]: 12.1 µM
TGI [21]: 26.2 µM
GI50 [22]: 13.2 µM
TGI [22]: 27.2 µM
GI50 [23]: 12.7 µM
TGI [23]: 26.6 µM
GI50 [24]: 17 µM
TGI [24]: 33.2 µM
GI50 [25]: 6.58 µM
TGI [25]: 35.2 µM
GI50 [26]: 17.6 µM
TGI [26]: 36.1 µM
GI50 [27]: 16.3 µM
TGI [27]: 33 µM
GI50 [28]: 16.5 µM
TGI [28]: 34.6 µM
GI50 [29]: 20.8 µM
TGI [29]: 58.1 µM
GI50 [30]: 16.3 µM
TGI [30]: 35.3 µM
GI50 [31]: 10.2 µM
TGI [31]: 23.8 µM
GI50 [32]: 3.37 µM
TGI [32]: 19 µM
GI50 [33]: 14.4 µM
TGI [33]: 28.1 µM
GI50 [34]: 14.9 µM
TGI [34]: 28.6 µM
GI50 [35]: 16.8 µM
TGI [35]: 36 µM
GI50 [36]: 16 µM
TGI [36]: 31.4 µM
GI50 [37]: 15.6 µM
TGI [37]: 29.5 µM
GI50 [38]: 4.06 µM
TGI [38]: 16.6 µM
GI50 [39]: 19.9 µM
TGI [39]: 56.4 µM
GI50 [40]: 12.2 µM
TGI [40]: 24.8 µM
GI50 [41]: 19.9 µM
TGI [41]: 57.1 µM
GI50 [42]: 2.18 µM
TGI [42]: 6.77 µM
GI50 [43]: 13.2 µM
TGI [43]: 26.1 µM
GI50 [44]: 15.7 µM
TGI [44]: 34.5 µM
GI50 [45]: 16.9 µM
TGI [45]: 35.1 µM
GI50 [46]: 2.82 µM
TGI [46]: 14.3 µM
GI50 [47]: 16.2 µM
TGI [47]: 30.5 µM
GI50 [48]: 10.9 µM
TGI [48]: 23.9 µM
GI50 [49]: 4.82 µM
TGI [49]: 20 µM
GI50 [50]: 5.51 µM
TGI [50]: 21.3 µM
GI50 [51]: 12.6 µM
TGI [51]: 49.9 µM
GI50 [52]: 16.7 µM
TGI [52]: 33 µM
GI50 [53]: 19.4 µM
TGI [53]: 48.8 µM
GI50 [54]: 16 µM
TGI [54]: 29.5 µM
GI50 [55]: 7.84 µM
TGI [55]: 21.5 µM
GI50 [56]: 15.5 µM
TGI [56]: 29.8 µM
GI50 [57]: 14.1 µM
TGI [57]: 28.7 µM
GI50 [58]: 13.8 µM
TGI [58]: 26.7 µM
